Experiments:
IRAK3 = target: T1, IRAK3 (Homo sapiens, UniProt Q9Y616); assay: IRAK endogenous HTRF degradation assay (Total-IRAK3 HTRF kit); type: cell-based; conditions: overnight incubation, lowest percentage of protein remaining
T1 construct: IRAK Endogenous HTRF Degradation Assay; endogenous in cells
T1 sequence (Q9Y616 1-596): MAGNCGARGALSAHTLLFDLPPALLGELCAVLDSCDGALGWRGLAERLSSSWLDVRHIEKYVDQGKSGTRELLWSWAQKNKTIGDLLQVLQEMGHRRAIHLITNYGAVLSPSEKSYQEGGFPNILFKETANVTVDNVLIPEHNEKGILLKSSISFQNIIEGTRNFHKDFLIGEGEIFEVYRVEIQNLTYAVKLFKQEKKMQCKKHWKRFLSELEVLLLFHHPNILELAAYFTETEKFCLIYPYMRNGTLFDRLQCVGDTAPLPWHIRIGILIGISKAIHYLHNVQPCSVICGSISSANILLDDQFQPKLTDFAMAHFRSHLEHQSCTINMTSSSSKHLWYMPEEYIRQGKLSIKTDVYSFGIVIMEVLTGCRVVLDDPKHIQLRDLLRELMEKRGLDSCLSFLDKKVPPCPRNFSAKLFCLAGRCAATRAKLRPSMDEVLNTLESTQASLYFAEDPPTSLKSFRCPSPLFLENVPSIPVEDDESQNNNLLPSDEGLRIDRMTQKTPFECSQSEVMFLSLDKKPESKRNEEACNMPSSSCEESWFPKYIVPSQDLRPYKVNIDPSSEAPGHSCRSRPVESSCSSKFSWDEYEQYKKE
Method: Example B2. IRAK Endogenous HTRF Degradation Assay
Cells (~50 k) were plated in Cisbio 96-well low volume white plates (Cisbio: cat #66PL96005). Compounds were dissolved in DMSO and a 3-fold serial dilution was performed using a TECAN D300E. Cells were incubated with the compound overnight. Total-IRAK3 HTRF kit from Cisbio was used for degradation analysis (Cisbio: 63ADK101PEH). Cryptate and D2 antibodies were diluted in Detection buffer as per manufacturers recommendation. Then 2 μL of each solution was added to 16 μL lysate. Buffer control (lysis buffer detection buffer), Cryptate control (lysis buffer+cryptate antibody+detection buffer), and Negative control (lysis buffer+cryptate antibody+D2 antibody) were made as per manufacturers recommendation. Post incubation with antibodies the HTRF signal was measured using a Perkin Elmer Envision reader and the HTRF signal was calculated using formula: (Emission at 665 nm/Emission at 615 nm)*10,000. All HTRF values were normalized to the average value of DMSO. The average value of the DMSO control wells were set to equal 100% of the relative IRAK3 protein levels. Normalized luminescence values were plotted on a graph as a function of compound concentration. Compound concentration was plotted on the x-axis and the corresponding normalized IRAK3 protein levels on the y-axis. The EC50 value (the half-maximum effective concentration) of a compound for the degradation of the IRAK3 was calculated using a four-parameter logistic model (sigmoidal dose-response model) (FIT=(A+{(B−A)/1+[(C/x)D]})) where C is the inflection point (EC50), D is the […], and A and B are the low and high limits of the fit, respectively). The Ymin was calculated by determining the lowest percentage of target protein remaining following compound treatment. Dmax was calculated from Ymin (% Dmax=100−Ymin).
Using these assays, IC50, Dmax, EC50, and DC50 values of the following compounds were determined. Dmax is defined as the maximum percent degradation achieved and DC50 is the concentration at which 50% degradation is achieved.

IRAK3-ePL = target: T2, IRAK3-ePL (Homo sapiens, UniProt Q9Y616); assay: IRAK3-ePL overexpressing degradation assay (InCELL Hunter luminescence, dose response); type: cell-based; conditions: for IRAK3 ePL degradation Ymin: lowest percentage of target protein remaining following compound treatment; for DC50: read-out: IRAK3 ePL degradation EC50
T2 construct: expressed in transfected cells; host or cells: 293T CRBN OE/GSPT1 G575N KI cells, lentiviral transduction, puromycin selected
Summary of the method: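 Lenti-X 293T CRBN/GSPT1 G575N cells stably expressing IRAK3-ePL (5,000/well) treated overnight at 37° C with 10-point 3-fold dilutions from 10 μM, 0.2% DMSO. InCELL Hunter luminescence, background subtracted using Ataluren wells and normalized to DMSO; EC50 from four-parameter logistic fit.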

Structure (SMILES)	IRAK3 HTRF degradation Ymin (IRAK3) [%]	IRAK3 ePL degradation Ymin (IRAK3-ePL) [%]	DC50 (IRAK3-ePL) [nM]
C[C@H]1CN(c2ccc(C3CCC(=O)NC3=O)cc2)CCN1CCN1CCC(n2cc(Nc3ncc(C4CC4)n4ccnc34)cn2)CC1 (stereo partly drawn) [Compound 38, 3-(4-((S)-4-(2-(4-(4-((5-cyclopropylimidazo[1,2-a]pyrazin-8-yl)amino)-1H-pyrazol-1-yl)piperidin-1-yl)ethyl)-3-methylpiperazin-1-yl)phenyl) piperidine-2,6-dione]	9.1	25	0.51
Cc1cc(-c2cnc(Nc3cnn(C4CCN(CCN5CCN(c6ccc(C7CCC(=O)NC7=O)cc6)[C@@H](C)C5)CC4)c3)c3nccn23)c(F)cc1F (stereo partly drawn) [Compound 44, 3-(4-((S)-4-(2-(4-(4-((5-(2,4-difluoro-5-methylphenyl)imdazo [1,2-a]pyrazin-8-yl)amino)-1H-pyrazol-1-yl)piperidin-1-yl)ethyl)-2-methylpiperazin-1-yl)phenyl) piperidine-2,6-dione]	8.1	26	0.97
Cc1cc(-c2cnc(Nc3cnn(C4CCN(CCN5CCN(c6cccc7c(C8CCC(=O)NC8=O)nn(C)c67)CC5)CC4)c3)c3nccn23)c(F)cc1F (stereo not drawn) [Compound 41, 3-(7-(4-(2-(4-(4-((5-(2,4-difluoro-5-methylphenyl)imdazo [1,2-a]pyrazin-8-yl)amino)-1H-pyrazol-1-yl)piperidin-1-yl)ethyl)piperazin-1-yl)-1-methyl-1H-indazol-3-yl)piperidine-2,6-dione]	8.7	25	0.68
Cc1cc(-c2cnc(Nc3cnn([C@H]4CC[C@H](CCN5CCN(c6ccc(C7CCC(=O)NC7=O)cc6)C[C@H]5C)CC4)c3)c3nccn23)c(F)cc1F (stereo partly drawn) [Compound 37, 3-(4-((R)-4-(2-((trans)-4-(4-((5-(2,4-difluoro-5-methylphenyl)imidazo[1,2-a]pyrazin-8-yl)amino)-1H-pyrazol-1-yl)cyclohexyl)ethyl)-3-methylpiperazin-1-yl)phenyl) piperidine-2,6-dione]	10	20	3.8
Cc1cc(-c2cnc(Nc3cnn(C4CCN(CCN5[C@@H](C)CN(c6ccc(C7CCC(=O)NC7=O)cc6)C[C@@H]5C)CC4)c3)c3nccn23)c(F)cc1F (stereo partly drawn) [Compound 56, 3-(4-((3S,5S)-4-(2-(4-(4-((5-(2,4-difluoro-5-methylphenyl)imdazo [1,2-a]pyrazin-8-yl)amino)-1H-pyrazol-1-yl)piperidin-1-yl)ethyl)-3,5-dimethylpiperazin-1-yl)phenyl) piperidine-2,6-dione]	8.6	23	0.75
Cc1cc(-c2cnc(N[C@H]3CCN(C4CCN(CCN5CCN(c6ccc(C7CCC(=O)NC7=O)cc6)CC5)CC4)C3)c3nccn23)c(F)cc1F (stereo partly drawn) [Compound 65, 3-(4-(4-(2-(4-((S)-3-((5-(2,4-difluoro-5-methylphenyl)imdazo [1,2-a]pyrazin-8-yl)amino)pyrrolidin-1-yl)piperidin-1-yl)ethyl)piperazin-1-yl)phenyl) piperidine-2,6-dione]	96	86	3300
Cc1cc(-c2cnc(Nc3cnn(C4CCN(CCN5CCN(c6ccc(C7CCC(=O)N(C)C7=O)cc6)CC5)CC4)c3)c3nccn23)c(F)cc1F (stereo not drawn) [Compound 55, 3-(4-(4-(2-(4-(4-((5-(2,4-difluoro-5-methylphenyl)imdazo [1,2-a]pyrazin-8-yl)amino)-1H-pyrazol-1-yl)piperidin-1-yl)ethyl)piperazin-1-yl)phenyl)-1-methylpiperidine-2,6-dione]	64	84	1100
Cc1cc(-c2cnc(N[C@@H]3CCN(C4CCN(CCN5CCN(c6ccc(C7CCC(=O)NC7=O)cc6)CC5)CC4)C3)c3nccn23)c(F)cc1F (stereo partly drawn) [Compound 60, 3-(4-(4-(2-(4-((R)-3-((5-(2,4-difluoro-5-methylphenyl)imdazo [1,2-a]pyrazin-8-yl)amino)pyrrolidin-1-yl)piperidin-1-yl)ethyl)piperazin-1-yl)phenyl) piperidine-2,6-dione]	96	92	0.51
O=C1CCC(c2ccc(N3CCN(CCN4CCC(n5cc(Nc6ncc(-c7cc8c(cc7F)OCCN8)n7ccnc67)cn5)CC4)CC3)cc2)C(=O)N1 (stereo not drawn) [Compound 51, 3-(4-(4-(2-(4-(4-((5-(7-fluoro-3,4-dihydro-2H-benzo[b][1,4]oxazin-6-yl)imidazo[1,2-a]pyrazin-8-yl)amino)-1H-pyrazol-1-yl)piperidin-1-yl)ethyl)piperazin-1-yl)phenyl) piperidine-2,6-dione]	9.3	24	2.5
Cc1cc(-c2cnc(Nc3cnn(C4CCN(CCN5CCN(c6ccc(C7CCC(=O)NC7=O)c(Cl)c6)CC5)CC4)c3)c3nccn23)c(F)cc1F (stereo not drawn) [Compound 54, 3-(2-chloro-4-(4-(2-(4-(4-((5-(2,4-difluoro-5-methylphenyl)imdazo [1,2-a]pyrazin-8-yl)amino)-1H-pyrazol-1-yl)piperidin-1-yl)ethyl)piperazin-1-yl)phenyl) piperidine-2,6-dione]	15	28	10
Cc1cc(-c2cnc(Nc3cnn(C4CCN(CCN5CCN(c6ccc(C7CCC(=O)NC7=O)cc6)[C@H](C)C5)CC4)c3)c3nccn23)c(F)cc1F (stereo partly drawn) [Compound 50, 3-(4-((R)-4-(2-(4-(4-((5-(2,4-difluoro-5-methylphenyl)imdazo [1,2-a]pyrazin-8-yl)amino)-1H-pyrazol-1-yl)piperidin-1-yl)ethyl)-2-methylpiperazin-1-yl)phenyl) piperidine-2,6-dione]	9.8	25	1.3
Cc1cc(-c2cnc(Nc3cnn([C@@H]4CCN(CCN5CCN(c6ccc(C7CCC(=O)NC7=O)cc6)C[C@@H]5C)[C@H](C)C4)c3)c3nccn23)c(F)cc1F (stereo partly drawn) [Compound 59, 3-(4-((S)-4-(2-((2R,4R)-4-(4-((5-(2,4-difluoro-5-methylphenyl)imdazo [1,2-a]pyrazin-8-yl)amino)-1H-pyrazol-1-yl)-2-methylpiperidin-1-yl)ethyl)-3-methylpiperazin-1-yl)phenyl) piperidine-2,6-dione]	7.5	21	0.51
Cc1cc(-c2cnc(Nc3cnn(C4CCN(CCN5CCN(c6ccc7c(C8CCC(=O)NC8=O)nn(C)c7c6)CC5)CC4)c3)c3nccn23)c(F)cc1F (stereo not drawn) [Compound 39, 3-(6-(4-(2-(4-(4-((5-(2,4-difluoro-5-methylphenyl)imdazo [1,2-a]pyrazin-8-yl)amino)-1H-pyrazol-1-yl)piperidin-1-yl)ethyl)piperazin-1-yl)-1-methyl-1H-indazol-3-yl)piperidine-2,6-dione]	14.	32	0.51
COc1cc(C2CCC(=O)NC2=O)ccc1N1CCN(CCN2CCC(n3cc(Nc4ncc(-c5cc(C)c(F)cc5F)n5ccnc45)cn3)CC2)CC1 (stereo not drawn) [Compound 42, 3-(4-(4-(2-(4-(4-((5-(2,4-difluoro-5-methylphenyl)imdazo [1,2-a]pyrazin-8-yl)amino)-1H-pyrazol-1-yl)piperidin-1-yl)ethyl)piperazin-1-yl)-3-methoxyphenyl) piperidine-2,6-dione]	9.8	23	0.51
